Earlier results on three compounds are cited in patent publication US8748589B2, “Complex crystalline sugar comprising D-psicose and D-allose and process for production of the same” (priority 2005, dated 2014).

Molecules are shown by their SMILES.

For this series, the system named is L-rhamnose isomerase. The following applies: for inhibition of L-rhamnose isomerase activity by coexisting chelating agent: chelating agent present at the time of measurement of the activity.

Regarding `O=C(O)CN(CCN(CC(=O)O)CC(=O)O)CC(=O)O` [EDTA], the “inhibition of L-rhamnose isomerase activity by coexisting chelating agent” value is listed as “Almost no activity was inhibited”. As for `O=C(O)CN(CCOCCOCCN(CC(=O)O)CC(=O)O)CC(=O)O` [EGTA], the “inhibition of L-rhamnose isomerase activity by coexisting chelating agent” value is reported as “Almost no activity was inhibited”. For `[Co+2]` [cobalt ion], the “inhibition of L-rhamnose isomerase activity by metal ion” value (1 mM cobalt ion) was “About 30%”.
